Test [1] has as its target T1, cathepsin G (Homo sapiens, UniProt P08311).
T1 construct: purified cathepsin G (0.2 µg) from human neutrophils; purchased Calbiochem; host or cells: human neutrophils (natural source)
T1 sequence (P08311 21-244 limits assumed): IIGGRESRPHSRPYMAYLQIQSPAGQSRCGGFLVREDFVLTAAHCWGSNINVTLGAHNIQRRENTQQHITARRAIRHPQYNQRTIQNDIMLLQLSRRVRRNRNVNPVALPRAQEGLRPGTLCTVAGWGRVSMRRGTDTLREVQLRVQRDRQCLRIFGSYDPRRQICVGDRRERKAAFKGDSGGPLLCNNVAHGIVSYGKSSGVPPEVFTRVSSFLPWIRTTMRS
Put plainly: Cathepsin G activity in a cell-free assay (Suc-AAPF-pNA substrate). The format is biochemical. The conditions noted are these: for remaining activity at 10 µM / Cat. G Activity [% Control]: residual activity at 10 µM, mean ± SEM, 3–4 experiments; for remaining activity at 10 µM / IC50 / Cat. G Activity [% Control]: cell-free; for remaining activity at 10 µM: read-out: Cat. G Activity [% Control]; for inhibition at 10 µM / inhibition of cathepsin G: at 10 µM; for IC50: purified cathepsin G from human neutrophils, read-out: Cat. G IC50 (converted). The procedure: Commercially available purified cathepsin G (0.2 µg) from human neutrophils (Calbiochem, La Jolla, CA, USA) was mixed with test compounds or DMSO (vehicle control) in 200 µL 0.1 M HEPES pH 7.4, 0.5 M NaCl, and 10% DMSO in a 96-well plate (Greiner Bio-One, Frickenhausen, Germany) and pre-incubated for 20 min at 25 °C. Then, N-Suc–Ala–Ala–Pro–Phe–pNA (Suc–AAPF–pNA) (1 mM) as substrate for cathespin G was added, and the absorbance was measured at 410 nm at 25 °C using a Victor^2 plate reader (PerkinElmer, Waltham, MA, USA).

Test [2] deals with T2, 5-LO (Homo sapiens, UniProt P09917).
T2 sequence (P09917 1-674): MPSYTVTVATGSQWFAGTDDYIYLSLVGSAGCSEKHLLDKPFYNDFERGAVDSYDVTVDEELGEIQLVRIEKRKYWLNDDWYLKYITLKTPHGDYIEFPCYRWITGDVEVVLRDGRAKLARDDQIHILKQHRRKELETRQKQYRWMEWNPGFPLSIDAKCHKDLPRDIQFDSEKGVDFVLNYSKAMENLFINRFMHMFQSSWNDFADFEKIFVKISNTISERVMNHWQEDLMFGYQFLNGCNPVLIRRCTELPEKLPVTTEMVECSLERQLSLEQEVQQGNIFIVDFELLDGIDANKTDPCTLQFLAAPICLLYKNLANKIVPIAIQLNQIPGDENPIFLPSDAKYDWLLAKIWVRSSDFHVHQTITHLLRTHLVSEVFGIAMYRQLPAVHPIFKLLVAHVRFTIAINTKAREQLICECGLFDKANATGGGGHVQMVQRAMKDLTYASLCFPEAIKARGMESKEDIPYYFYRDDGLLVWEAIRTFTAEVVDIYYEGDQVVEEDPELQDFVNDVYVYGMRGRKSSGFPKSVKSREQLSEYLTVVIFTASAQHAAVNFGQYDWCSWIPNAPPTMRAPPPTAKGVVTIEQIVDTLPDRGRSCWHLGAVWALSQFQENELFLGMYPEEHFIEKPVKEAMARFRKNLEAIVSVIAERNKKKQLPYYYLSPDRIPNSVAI
The experiment in a line: 5-LO activity in a cell-free assay (isolated human recombinant 5-LO, 20 µM arachidonic acid). The format is biochemical. Also on record: made in house; host or cells: Escherichia coli BL21 (pT3-5-LO plasmid). The conditions noted are these: for remaining activity at 10 µM / 5-LO Activity [% Control] cell-free: residual activity at 10 µM, isolated 5-LO, 20 µM arachidonic acid, mean ± SEM, 3–4 experiments; for remaining activity at 10 µM: read-out: 5-LO Activity [% Control] cell-free. The procedure: Human recombinant 5-LO was expressed in Eschericha coli BL21 transformed with pT3-5-LO plasmid at 30 °C overnight, as described elsewhere. Cells were lysed in lysis buffer containing triethanolamine (50 mM, pH 8.0), EDTA (5 mM), phenylmethanesulfonyl fluoride (1 mM), soybean trypsin inhibitor (60 µg/mL), dithiothreitol (2 mM), and lysozyme (1 mg/mL), and homogenized by sonification (3 × 15 s). 5-LO was then purified from 40,000× g supernatant (20 min, 4 °C) using an ATP-agarose column (Sigma-Aldrich, Deisenhofen, Germany), diluted with PBS buffer containing 1 mM EDTA, and immediately used for 5-LO activity assays.
To determine 5-LO activity, aliquots of purified 5-LO (0.5 µg 5-LO in 1 mL PBS plus 1 mM EDTA) were pre-incubated with the test compounds or vehicle (0.1% dimethyl sulfoxide, DMSO) on ice for 15 min, pre-warmed for 30 s at 37 °C in a water bath, and then stimulated with 20 µM AA and CaCl2 2 mM for 10 min at 37 °C. The reaction was stopped with one volume of ice-cold methanol and 5-LO products (including all-trans-isomers of LTB4 and 5-hydroperoxyeicosatetraenoic acid (5-HpETE), as well as its corresponding alcohol 5-hydroxyeicosatetraenoic acid (5-HETE)) were analyzed by reversed phase (RP)-HPLC (Elite LaChrom, VWR, Radnor, PA, USA) as previously described. In brief, acidified PBS and 200 ng of internal PGB1 standard were added and solid phase extraction using C18 RP-columns (100 mg, UCT, Bristol, PA, USA) was performed. After elution with methanol, samples were analyzed by RP-HPLC using a C-18 Radial-PAK column (Waters, Eschborn, Germany).

The target in test [3] is T2, 5-LO. The experiment in a line: 5-LO product formation in intact human neutrophils stimulated with A23187 (cell-based). Also on record: 5-LO product formation in intact human neutrophils; endogenous in cells; host or cells: freshly isolated human peripheral blood neutrophils. The conditions noted are these: for IC50: human neutrophils stimulated with A23187; for remaining activity at 10 µM: residual activity at 10 µM, A23187, mean ± SEM, 3–4 experiments, read-out: 5-LO Activity [% Control] cell-based. Here is the method:
Neutrophils were isolated from peripheral blood (University Hospital Tübingen, Germany), collected from fasted healthy adult donors that were informed about the aim of the study and gave written consent. Leukocyte concentrates were obtained by centrifugation (4000× g, 20 min, 20 °C) of heparinized blood preparation, and neutrophils were immediately isolated as described before. Briefly, leukocyte concentrates were subjected to dextran sedimentation and centrifuged on lymphocyte separation medium (LSM 1077, PAA, Coelbe, Germany). For isolation of pelleted neutrophils, remaining erythrocytes were removed by hypotonic lysis, washed twice with ice-cold phosphate-buffered saline (PBS) and finally resuspended in PBS buffer containing 0.1% glucose and CaCl2 (1 mM) (PGC buffer).
5-LO product formation in intact human neutrophils was performed using 5 × 10^6 freshly isolated cells that were resuspended in 1 mL PGC buffer. Cells were pre-incubated with the test compounds or vehicle (0.1% DMSO) at 37 °C for 15 min prior to stimulation with 2.5 µM Ca^2+-ionophore A23187 for 10 min (37 °C). 5-LO product formation was stopped by addition of one volume of ice-cold methanol, samples were subjected to solid phase extraction after addition of 200 ng PGB1 as internal standard, and 5-LO products (LTB4, its trans-isomers and 5-HETE) were analyzed by RP-HPLC as described above.

A word on the inhibition: it is the drop in the measured response relative to a control, in per cent. As usually defined, the IC50 is the concentration that inhibits the measured activity by half. Turning to `CC(C)=CCC[C@H](C(=O)O)[C@@H]1CC[C@]2(C)C3=CC[C@H]4C(C)(C)[C@H](O)CC[C@]4(C)[C@H]3CC[C@@]12C` [compound 13], in test [1], the inhibition at 10 µM was 27 to 44%. For the same compound, the results for the remaining activity at 10 µM in test [1], in test [2] and in test [3] (human neutrophils) were 72.3 ± 3.6%, 89.6 ± 8.5% and 8.2 ± 2.2%, respectively. This compound also showed a concentration for half-maximal inhibition (IC50) in test [3] of 2.9 µM.
For the compound `CC(C)=CCC[C@H](C(=O)O)[C@@H]1CC[C@]2(C)C3=C(CC[C@@]12C)[C@@]1(C)CC[C@@H](O)C(C)(C)[C@@H]1CC3` [compound 14], the inhibition at 10 µM in test [1] is 27 to 44%; in test [2], 34%. Moreover, the remaining activity at 10 µM in test [1] was 73 ± 7.3%; in test [2], 66 ± 15.1%; in test [3] (human neutrophils) it was 3.1 ± 0.6%. In test [3], this compound had an IC50 of 1.1 µM. Also, the “fold more potent than AKBA 1 in intact cells” value in test [3] (human neutrophils, IC50 comparison) is “about 3 fold”.
In the case of `CC(C)=CCC[C@H](C(=O)O)[C@@H]1CC[C@]2(C)C3=C(CC[C@@]12C)[C@@]1(C)CC[C@H](O)C(C)(C)[C@@H]1CC3` [compound 15], in test [1], the “inhibition of cathepsin G” value is listed as “failed to markedly inhibit cathepsin G” and the remaining activity at 10 µM was determined as 80.1 ± 6.2%. Besides, in test [2], the inhibition at 10 µM is 36% and the remaining activity at 10 µM was found to be 64.1 ± 12.4%. The compound also showed an IC50 in test [3] of 3 µM. Further, the remaining activity at 10 µM in test [3] (human neutrophils) was 5.2 ± 1%.
With `CC(C)=CCC[C@H](C(=O)O)[C@@H]1CC[C@]2(C)C3=C(CC[C@@]12C)[C@@]1(C)CCC(=O)C(C)(C)[C@@H]1CC3` [compound 16], the inhibition at 10 µM in test [1] fell in the range of 27 to 44%. In addition, the figures for the remaining activity at 10 µM in test [1], in test [2] and in test [3] (human neutrophils) were 53.1 ± 5.5%, 77.1 ± 8.7% and 37.8 ± 2.4%, respectively. This compound showed an IC50 in test [3] of 7.1 µM.
In test [1], `CC(=O)O[C@@H]1CC[C@]2(C)C3=C(CC[C@H]2C1(C)C)[C@@]1(C)CC[C@@H]([C@H](CCC=C(C)C)C(=O)O)[C@]1(C)CC3` [compound 17] returned an inhibition at 10 µM of 27 to 44%. Further, the remaining activity at 10 µM came out at 66.7 ± 4.5% in test [1], 75.6 ± 3% in test [2] and 75.5 ± 2.1% in test [3] (human neutrophils).
As to `C[C@H]1[C@H](C)CC[C@]2(C)CC[C@]3(C)C(=C[C@@H](O)[C@@H]4[C@@]5(C)CC[C@@H](O)[C@](C)(C(=O)O)[C@@H]5CC[C@]43C)[C@H]12` [compound 18, 11α-Hydroxy-β-boswellic acid], the remaining activity at 10 µM in test [1] came to 62.9 ± 6.6%; in test [2], 72.8 ± 7.1%; in test [3] (human neutrophils) it was 18.3 ± 2.7%. In addition, the inhibition at 10 µM in test [2] was less than 25%. The IC50 in test [3] is 2.8 µM.
As to `C[C@H]1[C@H](C)CC[C@]2(C)CC[C@]3(C)C(=C[C@H](O)[C@@H]4[C@@]5(C)CC[C@@H](O)[C@](C)(C(=O)O)[C@@H]5CC[C@]43C)[C@H]12` [compound 19, 11β-hydroxy-β-boswellic acid], the remaining activity at 10 µM in test [1] was 82.7 ± 9%; in test [2], 87.2 ± 1.8%; in test [3] (human neutrophils), 58.2 ± 0.9%. Besides, in test [2], the inhibition at 10 µM was less than 25%.
For `C[C@H]1[C@H](C)CC[C@]2(C)CC[C@]3(C)C(=CC[C@@H]4[C@@]5(C)CC[C@@H](OC(=O)C(=O)O)[C@](C)(C(=O)O)[C@@H]5CC[C@]43C)[C@H]12` [compound 20, 3-O-Oxaloyl-β-boswellic acid], in test [1], the IC50 is 4.7 µM and the remaining activity at 10 µM amounted to 38.1 ± 6.4%. Besides, the “5-LO Activity [% Control] cell-free” value in test [2] was “n.i”. The remaining activity at 10 µM in test [3] (human neutrophils) was 77.3 ± 5.7%.
In the case of `C[C@H]1[C@H](C)CC[C@]2(C)CC[C@]3(C)C(=CC(=O)[C@@H]4[C@@]5(C)CC[C@@H](OC(=O)C(=O)O)[C@](C)(C(=O)O)[C@@H]5CC[C@]43C)[C@H]12` [compound 21, 3-O-Oxaloyl-11-keto-β-boswellic acid], in test [1], the “inhibition of cathepsin G” value is given as “not active” and the “Cat. G Activity [% Control]” value is “n.i”. Besides, the “5-LO Activity [% Control] cell-free” value in test [2] is given as “n.i”. Further, in test [3] (human neutrophils), the remaining activity at 10 µM amounted to 70.3 ± 6.9%.
For `C[C@H]1[C@H](C)CC[C@]2(C)CC[C@]3(C)C(=CC[C@@H]4[C@@]5(C)CC[C@@H](OC(=O)CCC(=O)O)[C@](C)(C(=O)O)[C@@H]5CC[C@]43C)[C@H]12` [compound 22, 3-O-Succinoyl-β-boswellic acid], the remaining activity at 10 µM worked out at 59.4 ± 7.6% in test [1], 85.9 ± 11.1% in test [2] and 60.3 ± 8% in test [3] (human neutrophils).
Take `C[C@H]1[C@H](C)CC[C@]2(C)CC[C@]3(C)C(=CC(=O)[C@@H]4[C@@]5(C)CC[C@@H](OC(=O)CCC(=O)O)[C@](C)(C(=O)O)[C@@H]5CC[C@]43C)[C@H]12` [compound 23, 3-O-Succinoyl-11-keto-β-boswellic acid]: the “inhibition of cathepsin G” value in test [1] is “not active”. The “Cat. G Activity [% Control]” value in test [1] is given as “n.i”. The remaining activity at 10 µM stood at 75 ± 4.8% in test [2] and 80.8 ± 6.8% in test [3] (human neutrophils).
As for `C[C@H]1[C@H](C)CC[C@]2(C)CC[C@]3(C)C(=CC[C@@H]4[C@@]5(C)CC[C@@H](OC(=O)CCCC(=O)O)[C@](C)(C(=O)O)[C@@H]5CC[C@]43C)[C@H]12` [compound 24, 3-O-Glutaroyl-β-boswellic acid], in test [1], the IC50 was 3.6 µM and the remaining activity at 10 µM amounted to 24.5 ± 1.7%. Further, in test [2], the “5-LO Activity [% Control] cell-free” value is “n.i”. The remaining activity at 10 µM in test [3] (human neutrophils) was found to be 65.3 ± 8%.

The values above are taken from article PMC6017322, “Triterpene Acids from Frankincense and Semi-Synthetic Derivatives That Inhibit 5-Lipoxygenase and Cathepsin G” (Molecules : A Journal of Synthetic Chemistry and Natural …, 2018).
